Values joined by “and” are separate entries in the source; they are usually repeats but may differ in a detail not shown here. Equal entries are not always repeated.
Legend:
Felis catus [1] = experiment: Effect of intraperitoneal infusion on respiration frequency in Anesthetized cats at a dose of 200 mg/kg at 120 min; format: functional
Felis catus [2] = experiment: Effect of intraperitoneal infusion on respiration frequency in Anesthetized cats at a dose of 200 mg/kg at 15 min; format: functional
Oryctolagus cuniculus [3] = species on record: Oryctolagus cuniculus; experiment: Effect on 35 mM K+-induced contraction on rabbit aorta at a dose of 3*10e-9 mol/L; format: functional
Felis catus [4] = experiment: Effect of intraperitoneal infusion on systolic pressure in Anesthetized cats at a dose of 200 mg/kg at 165 min; format: functional
Felis catus [5] = experiment: Effect of intraperitoneal infusion of compound on cardiac frequency in Anesthetized cats at a dose of 200 mg/kg at 60 min; format: functional, Heart
Oryctolagus cuniculus [6] = species on record: Oryctolagus cuniculus; experiment: Effect on 35 mM K+-induced contraction on rabbit aorta at a dose of 10E-6 mol/L; format: functional
Felis catus [7] = experiment: Effect of intraperitoneal infusion of compound on cardiac frequency in Anesthetized cats at a dose of 200 mg/kg at 15 min; format: functional, Heart
Felis catus [8] = experiment: Effect of intraperitoneal infusion on diastolic pressure in Anesthetized cats at a dose of 200 mg/kg at 75 min; format: functional
Felis catus [9] = experiment: Effect of intravenous infusion on cardiac frequency in Anesthetized cats at a dose of 3 mg/kg at 20 min; format: functional, Heart
Felis catus [10] = experiment: Effect of intraperitoneal infusion on diastolic pressure in Anesthetized cats at a dose of 200 mg/kg at 0 min; format: functional
Felis catus [11] = experiment: Effect of intraperitoneal infusion on systolic pressure in Anesthetized cats at a dose of 200 mg/kg at 75 min; format: functional
Felis catus [12] = experiment: Effect of intraperitoneal infusion on respiration frequency in Anesthetized cats at a dose of 200 mg/kg at 135 min; format: functional
Felis catus [13] = experiment: Effect of intraperitoneal infusion on systolic pressure in Anesthetized cats at a dose of 200 mg/kg at 180 min; format: functional
Felis catus [14] = experiment: Effect of intravenous infusion on diastolic pressure in Anesthetized cats at a dose of 0 mg/kg at 0 min; format: functional
Felis catus [15] = experiment: Effect of intravenous infusion on respiration frequency in Anesthetized cats at a dose of 0.75 mg/kg at 5 min; format: functional
Felis catus [16] = experiment: Effect of intraperitoneal infusion on diastolic pressure in Anesthetized cats at a dose of 200 mg/kg at 180 min; format: functional
Felis catus [17] = experiment: Effect of intraperitoneal infusion on diastolic pressure in Anesthetized cats at a dose of 200 mg/kg at 105 min; format: functional
Felis catus [18] = experiment: Effect of intravenous infusion on diastolic pressure in Anesthetized cats at a dose of 0.15 mg/kg at 1 min; format: functional
Felis catus [19] = experiment: Effect of intravenous infusion on respiration frequency in Anesthetized cats at a dose of 0.15 mg/kg at 1 min; format: functional
Felis catus [20] = experiment: Effect of intraperitoneal infusion of compound on cardiac frequency in Anesthetized cats at a dose of 200 mg/kg at 120 min; format: functional, Heart
Felis catus [21] = experiment: Effect of intravenous infusion on cardiac frequency in Anesthetized cats at a dose of 0.75 mg/kg at 5 min; format: functional, Heart
Felis catus [22] = experiment: Effect of intraperitoneal infusion on systolic pressure in Anesthetized cats at a dose of 200 mg/kg at 135 min; format: functional
Felis catus [23] = experiment: Effect of intraperitoneal infusion on systolic pressure in Anesthetized cats at a dose of 200 mg/kg at 120 min; format: functional
Felis catus [24] = experiment: Effect of intraperitoneal infusion on systolic pressure in Anesthetized cats at a dose of 200 mg/kg at 90 min; format: functional
Felis catus [25] = experiment: Effect of intraperitoneal infusion on systolic pressure in Anesthetized cats at a dose of 200 mg/kg at 15 min; format: functional
Oryctolagus cuniculus [26] = species on record: Oryctolagus cuniculus; experiment: Effect on 35 mM K+-induced contraction on rabbit aorta at a dose of 10E-9 mol/L; format: functional
Felis catus [27] = experiment: Effect of intravenous infusion on diastolic pressure in Anesthetized cats at a dose of 1.50 mg/kg at 10 min; format: functional; settings: dose 1.5 mg/kg
Felis catus [28] = experiment: Effect of intraperitoneal infusion of compound on cardiac frequency in Anesthetized cats at a dose of 200 mg/kg at 180 mins; format: functional, Heart
Mus musculus = species on record: Mus musculus; experiment: Dose required to protect 50% of tested mice against experimental antithrombosis.; format: functional
Felis catus [29] = experiment: Effect of intraperitoneal infusion on respiration frequency in Anesthetized cats at a dose of 200 mg/kg at 165 min; format: functional
Felis catus [30] = experiment: Effect of intraperitoneal infusion on respiration frequency in Anesthetized cats at a dose of 200 mg/kg at 45 min; format: functional
Felis catus [31] = experiment: Effect of intraperitoneal infusion of compound on cardiac frequency in Anesthetized cats at a dose of 200 mg/kg at 135 min; format: functional, Heart
Felis catus [32] = experiment: Effect of intraperitoneal infusion of compound on cardiac frequency in Anesthetized cats at a dose of 200 mg/kg at 30 min; format: functional, Heart
Felis catus [33] = experiment: Effect of intraperitoneal infusion of compound on cardiac frequency in Anesthetized cats at a dose of 200 mg/kg at 150 min; format: functional, Heart
Cavia porcellus [34] = species on record: Cavia porcellus; experiment: Chronotropic activity on left and right guinea pig artia (beats/min), at 75 min; format: functional
Felis catus [35] = experiment: Effect of intravenous infusion on diastolic pressure in Anesthetized cats at a dose of 2.25 mg/kg at 15 min; format: functional
Felis catus [36] = experiment: Effect on respiration frequency in Anesthetized cats at a dose of 2.25 mg/kg at 15 min; format: functional
Felis catus [37] = experiment: Effect of intraperitoneal infusion on diastolic pressure in Anesthetized cats at a dose of 200 mg/kg at 135 min; format: functional
Felis catus [38] = experiment: Effect of intraperitoneal infusion on respiration frequency in Anesthetized cats at a dose of 200 mg/kg at 90 min; format: functional
Felis catus [39] = experiment: Effect of intravenous infusion on systolic pressure in Anesthetized cats at a dose of 0.15 mg/kg at 1 min; format: functional
Felis catus [40] = experiment: Effect of intravenous infusion on cardiac frequency in Anesthetized cats at a dose of 0.15 mg/kg at 1 min; format: functional, Heart
Felis catus [41] = experiment: Effect of intravenous infusion on systolic pressure in Anesthetized cats at a dose of 0.75 mg/kg at 5 min; format: functional
Felis catus [42] = experiment: Effect of intraperitoneal infusion on respiration frequency in Anesthetized cats at a dose of 200 mg/kg at 60 min; format: functional
Felis catus [43] = experiment: Effect of intravenous infusion on respiration frequency in Anesthetized cats at a dose of 0 mg/kg at 0 min; format: functional
Cavia porcellus [44] = species on record: Cavia porcellus; experiment: Chronotropic activity on left and right guinea pig artia (beats/min), at 180 min; format: functional
Cavia porcellus [45] = species on record: Cavia porcellus; experiment: Chronotropic activity on left and right guinea pig artia (beats/min), at 120 min; format: functional
Felis catus [46] = experiment: Effect of intravenous infusion on cardiac frequency in Anesthetized cats at a dose of 0.00 mg/kg at 0 min; format: functional, Heart
Felis catus [47] = experiment: Effect of intraperitoneal infusion on respiration frequency in Anesthetized cats at a dose of 200 mg/kg at 30 min; format: functional

## CCO/C(O)=C1\C(C)=NC(C)=C(C(=O)OCCN2C(=O)c3ccccc3S2(=O)=O)C1C (stereo unspecified)
Felis catus [1]
  Respiratory frequency: 13 r.p.m.
Felis catus [2]
  Respiratory frequency: 14 r.p.m.
Oryctolagus cuniculus [3]
  Inhibition: 0%
Felis catus [4]
  Arterial pressure: 142 mmHg
Felis catus [5]
  Cardiac frequency: 256 beats min-1
Oryctolagus cuniculus [6]
  Inhibition: 48.13%
Felis catus [7]
  Cardiac frequency: 254 beats min-1
Felis catus [8]
  Arterial pressure: 90 mmHg
Felis catus [9]
  Cardiac frequency: 216 beats min-1
Felis catus [10]
  Arterial pressure: 85 mmHg
Felis catus [11]
  Arterial pressure: 137 mmHg
Felis catus [12]
  Respiratory frequency: 15 r.p.m.
Felis catus [13]
  Arterial pressure: 145 mmHg
Felis catus [14]
  Arterial pressure: 115 mmHg
Felis catus [15]
  Respiratory frequency: 19 r.p.m.
Felis catus [16]
  Arterial pressure: 80 mmHg
Felis catus [17]
  Arterial pressure: 87 mmHg
Felis catus [18]
  Arterial pressure: 115 mmHg
Felis catus [19]
  Respiratory frequency: 18 r.p.m.
Felis catus [20]
  Cardiac frequency: 261 beats min-1
Felis catus [21]
  Cardiac frequency: 195 beats min-1
Felis catus [22]
  Arterial pressure: 140 mmHg
Felis catus [23]
  Arterial pressure: 145 mmHg
Felis catus [24]
  Arterial pressure: 138 mmHg
Felis catus [25]
  Arterial pressure: 130 mmHg
Oryctolagus cuniculus [26]
  Inhibition: 0%
Felis catus [27]
  Arterial pressure: 110 mmHg
Felis catus [28]
  Cardiac frequency: 276 beats min-1
Mus musculus
  ED50: 2.23 µmol/kg and 1 mg/kg
Felis catus [29]
  Respiratory frequency: 15 r.p.m.
Felis catus [30]
  Respiratory frequency: 14 r.p.m.
Felis catus [31]
  Cardiac frequency: 271 beats min-1
Felis catus [32]
  Cardiac frequency: 245 beats min-1
Felis catus [33]
  Cardiac frequency: 265 beats min-1
Cavia porcellus [34]
  Beats/min: 134
  Control: 97.8%
Felis catus [35]
  Arterial pressure: 110 mmHg
Felis catus [36]
  Respiratory frequency: 19 r.p.m.
Felis catus [37]
  Arterial pressure: 80 mmHg
Felis catus [38]
  Respiratory frequency: 12 r.p.m.
Felis catus [39]
  Arterial pressure: 165 mmHg
Felis catus [40]
  Cardiac frequency: 190 beats min-1
Felis catus [41]
  Arterial pressure: 162 mmHg
Felis catus [42]
  Respiratory frequency: 13 r.p.m.
Felis catus [43]
  Respiratory frequency: 18 r.p.m.
Cavia porcellus [44]
  Beats/min: 130
  Control: 94.9%
Cavia porcellus [45]
  Beats/min: 131
  Control: 95.6%
Felis catus [46]
  Cardiac frequency: 190 beats min-1
Felis catus [47]
  Respiratory frequency: 13 r.p.m.

From ChEMBL document CHEMBL1123971, “Synthesis, platelet aggregation inhibitory activity, and in vivo antithrombotic activity of new 1,4-dihydropyridines” (J Med Chem, 1988)
